According to publication PMC6934184, “Selective DNA-PKcs inhibition extends the therapeutic index of localized radiotherapy and chemotherapy” (The Journal of Clinical Investigation, 2019):

Molecular target: T1, DDR2 T654M (Homo sapiens, UniProt Q16832, T654M)
T1 construct: purchased Thermo Fisher Scientific (Life Technologies) SelectScreen
Assay: SelectScreen LanthaScreen
Format: binding
Settings: read-out: % displacement
Outline: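 Percent values come from Thermo SelectScreen profiling of NU5455, combining activity and binding assays. CSF1R was run in Z'LYTE format at Km app ATP, and CAMK1 in Adapta format with ATP listed at 10.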

T1 sequence (Q16832 22-855 T654M): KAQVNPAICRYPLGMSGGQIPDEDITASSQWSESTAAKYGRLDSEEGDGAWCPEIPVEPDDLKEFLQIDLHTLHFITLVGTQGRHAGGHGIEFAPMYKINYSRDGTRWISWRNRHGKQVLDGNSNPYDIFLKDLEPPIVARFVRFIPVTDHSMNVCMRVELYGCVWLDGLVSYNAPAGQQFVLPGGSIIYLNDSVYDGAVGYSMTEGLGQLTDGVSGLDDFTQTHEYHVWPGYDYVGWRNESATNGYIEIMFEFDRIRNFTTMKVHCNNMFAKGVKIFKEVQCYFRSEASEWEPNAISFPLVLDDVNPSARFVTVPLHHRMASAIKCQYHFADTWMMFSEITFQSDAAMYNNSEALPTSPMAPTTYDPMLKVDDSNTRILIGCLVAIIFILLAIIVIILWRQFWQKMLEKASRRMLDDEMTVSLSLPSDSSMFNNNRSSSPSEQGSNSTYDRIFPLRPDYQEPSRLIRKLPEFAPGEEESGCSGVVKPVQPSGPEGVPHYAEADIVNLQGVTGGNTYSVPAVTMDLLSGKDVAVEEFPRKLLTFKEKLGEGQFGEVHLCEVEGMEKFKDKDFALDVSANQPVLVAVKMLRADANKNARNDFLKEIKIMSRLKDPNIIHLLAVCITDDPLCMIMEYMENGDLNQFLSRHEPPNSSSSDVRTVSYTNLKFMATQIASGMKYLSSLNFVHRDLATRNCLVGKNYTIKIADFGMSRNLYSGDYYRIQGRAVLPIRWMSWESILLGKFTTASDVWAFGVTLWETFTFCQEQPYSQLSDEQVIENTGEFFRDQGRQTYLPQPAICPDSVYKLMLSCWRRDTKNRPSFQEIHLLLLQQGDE

For `CN(C(=O)CN1CCOCC1)c1ccc2sc3c(-c4cccc5c(=O)cc(N6CC7CCC(C6)O7)oc45)cccc3c2c1` [NU5455], which inhibition at 1 µM is on record?
Its inhibition at 1 µM is 2.5%.
